The values that follow come from publication PMC10003956, “To the Understanding of Catalysis by D-Amino Acid Transaminases: A Case Study of the Enzyme from Aminobacterium colombiense” (Molecules, 2023).

Broadly, the Kd is the equilibrium constant for the complex coming apart. Lower therefore signals higher affinity.

For assay [1], the target named is T1, AmicoTA (Aminobacterium colombiense, UniProt D5EHC5).
T1 construct: gene Amico_1844; N-terminal His6-TEV tag kept for kinetics, cut for crystals; E. coli Rosetta (DE3) pLysS
T1 sequence (D5EHC5 entry or part of it): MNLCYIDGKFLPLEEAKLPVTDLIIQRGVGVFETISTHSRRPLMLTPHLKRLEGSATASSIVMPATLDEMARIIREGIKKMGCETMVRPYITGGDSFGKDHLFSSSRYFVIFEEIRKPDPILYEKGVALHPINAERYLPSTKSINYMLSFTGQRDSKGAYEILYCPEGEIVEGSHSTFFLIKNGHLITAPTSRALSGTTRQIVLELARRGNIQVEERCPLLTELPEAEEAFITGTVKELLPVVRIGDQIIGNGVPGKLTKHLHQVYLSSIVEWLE
The assay is described as follows: half-reaction of PLP form, absorbance at […] nm. It counts as binding.

In assay [2] the target is T1, AmicoTA. The assay can be described thus: X-ray crystal structure, […] Å. It counts as binding. As to conditions: covalent, Schiff base with K142; tag-free protein.

In turn, `C[C@@H](N)C(=O)O` [D-alanine] displayed an equilibrium dissociation constant (Kd) at AmicoTA [1] of 50 ± 6 mM.

Consider `N[C@H](CCC(=O)O)C(=O)O` [D-glutamate], for which the Kd on AmicoTA [1] is 2.1 ± 0.2 mM.

The compound `CC(C)C[C@@H](N)C(=O)O` [D-leucine] had a Kd at AmicoTA [1] of 100 ± 10 mM.

For the compound `N[C@H](Cc1ccccc1)C(=O)O` [D-phenylalanine], the affinity on AmicoTA [1], expressed as Kd, was 19 ± 3 mM.

`Cc1ncc(COP(=O)(O)O)c(C=O)c1O` [PLP]: on AmicoTA [2], the “X-ray crystal structure, 1.9 Å” value is reported as “bound via Schiff base linkage with K142”.
